Values after ≈ are worked out from the molar mass of the structure shown. Like-named read-outs stand apart in the source and are kept apart here.
Tests used:
[1] = target: T1, S. aureus DNA gyrase (Staphylococcus aureus, UniProt P20831); test: Gyrase Supercoiling High Throughput Plate Assay (fluorescence), S. aureus; type: biochemical; conditions: fluorescence-based high throughput plate assay
T1 construct: purchased Inspiralis (Norwich, UK)
Experimental: A Gyrase Supercoiling High Throughput Plate Assay kit, purchased from Inspiralis (Norwich. UK), was used to determine IC50 values of compounds on S. aureus and E. coli gyrase. […] Biotinylated oligonucleotide in wash buffer was immobilized onto the wells, and the excess oligonucleotide was washed off with wash buffer and ultrapure water. […] The reactions were stopped by adding the TF buffer (50 mM NaOAc (pH 4.7), 50 mM NaCl, and 50 mM MgCl2) to allow the triplex formation (biotin–oligonucleotide–plasmid) for an additional 30 min. Afterward, the unbound plasmid was washed off using TF buffer, and the solution of Promega Diamond dye in T10 buffer (10 mM Tris-HCl (pH 8.0), 1 mM EDTA) was added. […] Preliminary screening was performed at four inhibitor concentrations of 100, 10, 1, and 0.1 μM. […] IC50 was calculated using nonlinear regression-based fitting of inhibition curves using log [inhibitor] versus response-variable slope (four parameters)—symmetrical equation in the GraphPad Prism 6.0 software (GraphPad Software, La Jolla, CA, USA, www.graphpad.com). IC50 values represent the mean of two to four independent measurements.
Target sequence in this assay (P20831 whole entry): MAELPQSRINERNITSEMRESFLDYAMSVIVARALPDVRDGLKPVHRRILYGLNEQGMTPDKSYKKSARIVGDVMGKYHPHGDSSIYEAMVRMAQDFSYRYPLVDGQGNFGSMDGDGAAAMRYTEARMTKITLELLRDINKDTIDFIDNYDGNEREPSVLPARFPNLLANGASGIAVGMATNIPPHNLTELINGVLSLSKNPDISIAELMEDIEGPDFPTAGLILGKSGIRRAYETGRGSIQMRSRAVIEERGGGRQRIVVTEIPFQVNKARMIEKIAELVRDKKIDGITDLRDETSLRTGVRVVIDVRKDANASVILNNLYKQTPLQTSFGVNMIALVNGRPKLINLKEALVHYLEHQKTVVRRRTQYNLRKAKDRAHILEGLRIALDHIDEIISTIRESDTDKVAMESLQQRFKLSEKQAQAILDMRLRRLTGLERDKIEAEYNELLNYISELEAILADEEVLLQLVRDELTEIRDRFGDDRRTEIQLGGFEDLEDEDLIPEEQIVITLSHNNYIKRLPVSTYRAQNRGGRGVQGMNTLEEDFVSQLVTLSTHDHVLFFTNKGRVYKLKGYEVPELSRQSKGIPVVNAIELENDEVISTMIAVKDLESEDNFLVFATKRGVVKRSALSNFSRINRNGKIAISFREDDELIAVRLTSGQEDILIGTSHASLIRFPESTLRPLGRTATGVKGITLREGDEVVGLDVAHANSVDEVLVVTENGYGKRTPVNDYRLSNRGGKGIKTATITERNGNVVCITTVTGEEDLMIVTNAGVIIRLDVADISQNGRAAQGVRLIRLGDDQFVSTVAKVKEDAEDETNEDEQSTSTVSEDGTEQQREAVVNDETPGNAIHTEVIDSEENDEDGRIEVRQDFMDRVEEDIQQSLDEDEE
Target sequence in this assay (P0A0K8 whole entry partner): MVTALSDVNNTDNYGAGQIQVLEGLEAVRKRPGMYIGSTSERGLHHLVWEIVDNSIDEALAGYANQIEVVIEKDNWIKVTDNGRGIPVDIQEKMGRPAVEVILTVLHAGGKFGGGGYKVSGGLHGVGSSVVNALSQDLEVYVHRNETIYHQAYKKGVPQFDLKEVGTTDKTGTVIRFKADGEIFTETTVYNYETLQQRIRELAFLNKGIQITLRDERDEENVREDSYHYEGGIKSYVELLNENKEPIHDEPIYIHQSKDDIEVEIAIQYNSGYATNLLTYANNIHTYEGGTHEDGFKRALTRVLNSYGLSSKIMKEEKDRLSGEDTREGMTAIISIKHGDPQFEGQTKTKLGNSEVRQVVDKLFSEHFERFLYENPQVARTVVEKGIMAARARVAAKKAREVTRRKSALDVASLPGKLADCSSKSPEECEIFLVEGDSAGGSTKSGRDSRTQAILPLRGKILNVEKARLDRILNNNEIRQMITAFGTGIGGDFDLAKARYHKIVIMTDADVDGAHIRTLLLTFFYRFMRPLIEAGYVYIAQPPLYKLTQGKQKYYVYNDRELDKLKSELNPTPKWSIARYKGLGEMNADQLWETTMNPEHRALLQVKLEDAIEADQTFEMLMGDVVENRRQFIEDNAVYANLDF

[2] = system: HepG2; test: Metabolic activity assessment (CellTiter 96 Aqueous One), HepG2; type: cell-based; conditions: Homo sapiens, 72 h treatment, mean ± SD
Experimental: (§1) Supplementary Table 7. Results of cytotoxicity studies.
(§2) Metabolic activity assessment
(§3) Cells of the HepG2 line ( ATCC® HB-8065™) and HUVEC ( ATCC® CRL-1730™) were cultured in Dulbecco’s Modified Eagle Medium (DMEM; Sigma-Aldrich, St. Louis, MO, USA) supplemented with 10% heat -deactivated FBS (Gibco, Grand Island/NY, USA), 2 mM L -glutamine, 100 U/mL penicillin, 100 µg/mL streptomycin (all from Sigma -Aldrich) in a humidified chamber at 37 °C and 5% CO2. The experiments were carried out on passages 7 - 9 for both cell lines. The tested compounds were dissolved in DMSO and further diluted in culture medium to a desired final concentration. […]
(§4) 10^4 cells/mL (100 µL/well) and after attachm ent treated with seven different concentration of the selected compounds or corresponding vehicle as control. The metabolic activity was assessed after 72 h treatment using the CellTiter 96 Aqueous One Solution Cell Proliferation Assay (Promega, Madison/WI, USA), in accordance with the manufacturer’s instructions .7 The absorbance was measured at 492 nm on an automated microplate reader BioTek Synergy HT (BioTek Instruments, Inc.). Data are presented as IC 50 value (mean ± SD) from two independent experiments , each conducted in duplicate or triplicate. IC 50 values were calculated by a non -linear regression model using Graph Pad Prism 7 software. […]

[3] = system: HUVEC; test: Metabolic activity assessment (CellTiter 96 Aqueous One), HUVEC; type: cell-based; conditions: Homo sapiens, 72 h treatment, mean ± SD
Experimental: as §1, §2, §3, §4

[4] = target: T2, hERG potassium channel (Homo sapiens, UniProt Q12809); test: FP-based hERG binding assay (Invitrogen kit)
T2 construct: purchased Invitrogen (kit); assay run at TCG Lifesciences Pvt; Ltd. India
T2 sequence (Q12809 whole entry): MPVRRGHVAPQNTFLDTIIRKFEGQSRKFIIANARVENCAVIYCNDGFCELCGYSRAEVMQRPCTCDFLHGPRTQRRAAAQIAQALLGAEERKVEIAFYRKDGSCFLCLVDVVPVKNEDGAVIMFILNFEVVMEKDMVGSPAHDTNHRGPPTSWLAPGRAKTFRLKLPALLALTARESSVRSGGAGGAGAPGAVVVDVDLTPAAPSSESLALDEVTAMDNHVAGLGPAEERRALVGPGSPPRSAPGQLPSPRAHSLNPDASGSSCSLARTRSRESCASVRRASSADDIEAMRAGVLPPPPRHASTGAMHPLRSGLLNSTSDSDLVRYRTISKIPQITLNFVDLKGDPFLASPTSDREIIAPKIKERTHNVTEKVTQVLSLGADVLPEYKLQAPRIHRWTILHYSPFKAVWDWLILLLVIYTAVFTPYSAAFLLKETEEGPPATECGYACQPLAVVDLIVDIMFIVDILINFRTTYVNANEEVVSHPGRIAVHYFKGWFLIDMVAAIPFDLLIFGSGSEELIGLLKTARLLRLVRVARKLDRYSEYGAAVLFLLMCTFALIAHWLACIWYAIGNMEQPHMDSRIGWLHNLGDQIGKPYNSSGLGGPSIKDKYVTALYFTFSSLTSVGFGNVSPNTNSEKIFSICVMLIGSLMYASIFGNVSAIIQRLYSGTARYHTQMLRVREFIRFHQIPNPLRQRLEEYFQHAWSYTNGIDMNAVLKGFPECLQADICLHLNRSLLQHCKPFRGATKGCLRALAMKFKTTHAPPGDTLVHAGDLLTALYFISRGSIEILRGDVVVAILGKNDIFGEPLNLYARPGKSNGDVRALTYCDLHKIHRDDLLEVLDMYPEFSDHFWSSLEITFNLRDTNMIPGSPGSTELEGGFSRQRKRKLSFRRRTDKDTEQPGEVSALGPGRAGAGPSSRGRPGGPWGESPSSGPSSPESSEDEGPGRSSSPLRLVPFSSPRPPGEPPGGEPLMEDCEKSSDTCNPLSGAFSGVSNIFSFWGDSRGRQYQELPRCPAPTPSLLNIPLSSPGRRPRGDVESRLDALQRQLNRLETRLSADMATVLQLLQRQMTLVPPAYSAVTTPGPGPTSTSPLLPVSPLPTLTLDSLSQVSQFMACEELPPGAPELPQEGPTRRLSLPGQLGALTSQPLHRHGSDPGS
Experimental: Supplementary Table 7. Results of cytotoxicity studies. […]
Cardiovascular hERG inhibition
Cardiovascular safety profile was entirely outsourced. hERG screening was performed at TCG
Lifesciences Pvt. Ltd. India with FP -based hERG binding assay (Invitrogen kit).

[5] = target: T1, S. aureus DNA gyrase; test: Gel-based S. aureus Gyrase Supercoiling assay (Inspiralis); type: biochemical
Experimental: gyrase supercoiling assays
In all experiments, the activity of the enzyme was determined prior to the testing of the compounds and 1 U defined as the amount of enzyme required to fully supercoil the substrate. This amount of enzyme was used in all subsequent assays. The final DMSO concentration in all the reactions was 1% (v/v). Compounds were serially diluted in DMSO and added to the reaction before the addition of the […]
Staphylococcus aureus gyrase supercoiling assay
1 U of DNA gyrase was incubated with 0.5 μg of relaxed pBR322 DNA in a 30 μl reaction at 37 °C for 30 min under the following conditions: 40 mM HEPES·KOH (pH 7.6), 10 mM magnesium acetate, 10 mM DTT, 2 mM ATP, 500 mM potassium glutamate and 0.05 mg/ml BSA. Each reaction was stopped by the addition of 30 μl chloroform/iso-amyl alcohol (24:1) and 20 μl Stop Dye (40% sucrose, 100 mM Tris.HCl ( pH 7.5), 10 mM EDTA, 0.5 μg/ml bromophenol blue), before being loaded on a 1.0% TAE (Tris.acetate […], EDTA […]). Gels run at 70V for 3 hours.
Data acquisition and analysis
Bands were visualised by ethidium staining for 10 min, destained for 10 min in water and bands were analysed by gel documentation equipment (Syngene, Cambridge, UK) and quantitated using Syngene Gene Tools software. Raw gel data (fluorescent band volumes) collected from Syngene, GeneTools gel analysis software were converted to a % of the 100% control (the fully supercoiled or relaxed […]
global curve fit non-linear regression tool was used to calculate IC50 data using the following equation:
Equation: Exponential Decay, Single, 2 Parameter f = ae−bx
(1 picture or pasted object on this page, not shown here)
Target sequence in this assay (P20831 whole entry): as the sequence (P20831 whole entry) above
Target sequence in this assay (P0A0K8 whole entry, further chain): as the sequence (P0A0K8 whole entry partner) above

[6] = system: MRSA (NCTC12493); test: Broth microdilution MIC, MRSA; type: cell-based, S. aureus; conditions: Staphylococcus aureus, 20 h, 37 °C
Experimental: (§5) Antimicrobial assays were performed by the broth microdilution method in 96-well plate format according to the Clinical and Laboratory Standards Institute guidelines[46] and European Committee on Antimicrobial Susceptibility Testing recommendations. First, bacterial suspensions of specific bacterial strains was prepared to obtain density equivalent to 0.5 McFarland turbidity standard, followed by dilution with cation-adjusted Mueller Hinton broth with TES (Thermo Fisher Scientific), to obtain a final inoculum of 10^5 colony-forming units/mL. Compounds were dissolved in DMSO and twofold dilutions were prepared, then inoculum was added and the mixture was incubated for 20 h at 37 °C. After incubation, the MIC values were read off by visual assessment as the lowest dilution of compound showing no turbidity. The MICs were determined against S. aureus (ATCC 29213), MRSA (NCTC12493), E. coli (ATCC 25922), E. coli D22, and E. coli N43 bacterial strains. Tetracycline was used as a positive control on every assay plate, displaying MICs of 0.5 and 1 μg/mL for S. aureus and E. coli, respectively.

[7] = system: S. aureus (ATCC 29213); test: Broth microdilution MIC, S. aureus; type: cell-based; conditions: Staphylococcus aureus, ATCC29213, 20 h, 37 °C
Experimental: as §5

[8] = system: E. coli (ATCC 25922); test: Broth microdilution MIC, E. coli; type: cell-based; conditions: Escherichia coli, ATCC25922, 20 h, 37 °C
Experimental: as §5

## COc1ccc2nccc(CCN3CCC(NCc4ccccc4)CC3)c2n1 [Compound 2]
[1]
  IC50: 1.02 µM
[2]
  IC50: 17.7 ± 2.16 µM
[3]
  IC50: 54.1 ± 3.45 µM
[4]
  IC50: 1.05 µM

## COc1ccc2nccc(CCN3CCC(NCc4ccc(F)cc4)CC3)c2n1 [Compound 3]
[1]
  IC50: 0.55 µM
[2]
  IC50: 12.7 ± 0.21 µM
[3]
  IC50: > 50 µM
[4]
  IC50: 0.59 µM

## COc1ccc2nccc(CCN3CCC(NCc4ccc(Cl)cc4)CC3)c2n1 [Compound 4]
[2]
  IC50: 10.16 ± 0.1 µM
[3]
  IC50: 27 ± 0.38 µM
[4]
  IC50: 0.27 µM

## COc1ccc2nccc(CCN3CCC(NCc4ccc(Br)cc4)CC3)c2n1 [Compound 5]
[2]
  IC50: 9.37 ± 0.07 µM
[3]
  IC50: 25.42 ± 0.01 µM
[4]
  IC50: 0.29 µM
[5]; IC50 S. aureus DNA gyrase supercoiling, gel-based assay
  IC50: 0.007 µM
[5]; S. aureus gyrase supercoiling IC50 Assay 1, gel-based assay, assay 1
  IC50: 0.007 µM
[5]; S. aureus gyrase supercoiling IC50 Assay 2, gel-based assay, assay 2
  IC50: 0.007 µM
[5]; S. aureus gyrase supercoiling IC50 Average, gel-based assay, average of assay 1 and 2
  IC50: 0.007 µM
[5]; S. aureus inhibition (DNA supercoiling IC50), as quoted in point-by-point response
  IC50: 0.007 µM
[5]; S. aureus inhibition (DNA supercoiling IC50), as quoted in reviewer report
  IC50: 0.007 µM

## COc1ccc2nccc(CCN3CCC(NCc4ccc(I)cc4)CC3)c2n1 [Compound 6]
[2]
  IC50: 8.47 ± 0.09 µM
[3]
  IC50: 19 ± 0.85 µM
[4]; human, FP-based hERG binding assay kit (Invitrogen)
  IC50: 0.18 µM
[5]; read-out: S. aureus gyrase supercoiling IC50 Assay 1, gel-based assay, assay 1
  IC50: 0.013 µM
[5]; read-out: S. aureus gyrase supercoiling IC50 Assay 2, gel-based assay, assay 2
  IC50: 0.009 µM

## COc1ccc2nccc(CCN3CCC(NCc4ccc(C(N)=O)cc4)CC3)c2n1 [Compound 8]
[3]
  IC50: > 50 µM
[4]
  IC50: 13.4 µM

## COc1ccc2nccc(CCN3CCC(NCc4ccc(N(C)C)cc4)CC3)c2n1 [Compound 9]
[1]
  IC50: 0.067 µM
[6]
  MIC: 0.25 mg/L (≈ 0.596 µM)
[7]
  MIC: 0.125 mg/L (≈ 0.298 µM)
[2]
  IC50: 10.03 ± 0.06 µM
[3]
  IC50: 23.85 ± 0.09 µM
[4]
  IC50: 2.11 µM

## CN(C)[C@@H]1C(O)=C(C(N)=O)C(=O)[C@@]2(O)C(O)=C3C(=O)c4c(O)cccc4[C@@](C)(O)[C@H]3C[C@@H]12 [Tetracycline, reference compound]
[7]
  MIC: 0.5 mg/L (≈ 1.13 µM)
[8]
  MIC: 1 mg/L (≈ 2.25 µM)

Reference: article PMC7794245, “Potent DNA gyrase inhibitors bind asymmetrically to their target using symmetrical bifurcated halogen bonds” (Nature Communications, 2021)
